{"source": "paper PMC5794198", "about": "“Inhibitors of Trypanosoma cruzi Sir2 related protein 1 as potential drugs against Chagas disease” (PLoS Neglected Tropical Diseases, 2018)", "key": {"TbSir2rp1": {"biological_target": "T1, TbSir2rp1 (Trypanosoma brucei brucei, UniProt Q57V41)", "T1 construct": "hexahistidine (C); made in house", "T1 sequence (Q57V41 whole entry)": "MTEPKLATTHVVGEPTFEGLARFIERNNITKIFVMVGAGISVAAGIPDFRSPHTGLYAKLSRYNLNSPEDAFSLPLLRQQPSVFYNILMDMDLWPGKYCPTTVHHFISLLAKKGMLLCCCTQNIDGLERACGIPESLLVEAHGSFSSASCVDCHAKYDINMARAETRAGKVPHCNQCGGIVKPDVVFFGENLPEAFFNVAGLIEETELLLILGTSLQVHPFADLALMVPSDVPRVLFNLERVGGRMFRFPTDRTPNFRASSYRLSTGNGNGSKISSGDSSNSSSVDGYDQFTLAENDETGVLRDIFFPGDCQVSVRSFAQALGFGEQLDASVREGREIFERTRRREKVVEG", "assay": "TbSir2rp1 deacetylase inhibition", "format": "biochemical", "description": "(§1) T. brucei Sir2rp1 (accession number: AAX70528.1) tagged with a C-terminal hexahistidine was expressed and characterized essentiality as described previously L. infantum Sir2rp1 was expressed and purified as previously described.\n(§2) The deacetylase activity was measured using the commercial SIRT1/Sir2 Deacetylase Fluorometric Assay Kit (CycLex,Japan) according to the manufacturer’s recommendations. Briefly, fluorescence emission after digestion of deacetylated substrates by a lysine specific endopeptidase was measured in a fluorometric plate reader (Synergy HT, BioTek) with excitation and emission wavelengths set at 340 and 440 nm, respectively, every 30 seconds for 1 hour. The slope of the linear part of the reaction was calculated and used as readout of enzyme activity."}, "TcSir2rp1": {"biological_target": "TcSir2rp1 (Trypanosoma cruzi, UniProt Q4DVL9)", "sequence (Q4DVL9 entry or part of it)": "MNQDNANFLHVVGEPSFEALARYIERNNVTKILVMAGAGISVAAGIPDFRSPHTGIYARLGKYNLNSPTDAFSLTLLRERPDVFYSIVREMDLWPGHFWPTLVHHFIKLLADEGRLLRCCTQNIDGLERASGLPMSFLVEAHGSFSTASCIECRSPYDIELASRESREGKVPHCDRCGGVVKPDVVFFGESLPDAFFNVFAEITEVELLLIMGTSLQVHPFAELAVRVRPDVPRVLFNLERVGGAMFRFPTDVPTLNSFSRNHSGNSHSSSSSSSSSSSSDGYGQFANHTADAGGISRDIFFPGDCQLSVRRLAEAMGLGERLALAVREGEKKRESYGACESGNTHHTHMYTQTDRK", "assay": "TcSir2rp1 NAD+-dependent deacetylase fluorimetric assay (CycLex kit)", "format": "biochemical", "description": "as §2, with “activity. […]” for “activity.”\n(§3) A variety of the bisnaphthalimidopropyl (BNIPs) derivatives, as well as the newly synthetized derivatives were evaluated as potential TcSir2rp1 inhibitors. The enzymatic reactions were performed using a commercially available CycLex SIRT1/Sir2 deacetylase fluorimetric kit (CycLex Co. Ltd., Nagano, Japan) in the absence and presence of the various inhibitors, 200 μM NAD^+ and 10 μM of peptide substrate as previously described.\nas §3, with “µM” for “μM”"}, "human SIRT1": {"biological_target": "T2, human SIRT1 (Homo sapiens, UniProt Q96EB6)", "T2 sequence (Q96EB6 1-747)": "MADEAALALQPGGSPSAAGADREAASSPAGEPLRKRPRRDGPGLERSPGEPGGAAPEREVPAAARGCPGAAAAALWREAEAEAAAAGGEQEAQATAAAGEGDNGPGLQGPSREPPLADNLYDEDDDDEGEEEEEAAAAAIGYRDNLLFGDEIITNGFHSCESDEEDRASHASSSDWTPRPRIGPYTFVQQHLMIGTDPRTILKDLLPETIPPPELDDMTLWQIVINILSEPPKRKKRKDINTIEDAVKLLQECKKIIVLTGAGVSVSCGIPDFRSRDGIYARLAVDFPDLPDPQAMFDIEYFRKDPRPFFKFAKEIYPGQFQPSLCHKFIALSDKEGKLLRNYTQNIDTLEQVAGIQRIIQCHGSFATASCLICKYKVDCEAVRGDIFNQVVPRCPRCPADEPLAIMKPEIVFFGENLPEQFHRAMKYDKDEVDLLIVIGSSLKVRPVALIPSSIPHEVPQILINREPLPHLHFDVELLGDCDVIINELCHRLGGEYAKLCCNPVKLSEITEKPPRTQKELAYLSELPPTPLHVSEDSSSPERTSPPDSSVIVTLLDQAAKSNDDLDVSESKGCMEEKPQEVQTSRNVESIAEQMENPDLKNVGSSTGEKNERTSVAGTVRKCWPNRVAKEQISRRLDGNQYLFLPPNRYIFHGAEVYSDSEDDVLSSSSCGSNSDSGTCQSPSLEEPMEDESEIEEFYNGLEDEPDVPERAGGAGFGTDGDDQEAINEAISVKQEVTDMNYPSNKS", "assay": "hSIRT1 deacetylase inhibition (CycLex kit)", "format": "biochemical", "conditions": "200 μM"}, "[1]": {"tested_on": "Plasmodium falciparum Sir2A", "set-up": "method as in PMID 19937668, PMID 18221799", "conditions": "previously described; ref [46], [72]; cited from earlier work"}, "T. cruzi amastigotes": {"tested_on": "T. cruzi amastigotes", "assay": "High-content screening assay on intracellular T. cruzi amastigotes", "format": "cell-based, Trypanosoma cruzi", "conditions": "up to a concentration of 2000 μM (2 mM)", "description": "For the evaluation of the activity against T. cruzi amastigotes, high-content screening (HCS) was designed. In summary, 100 μL of host C2C12 cells (ATCC) were seeded in clear bottom black 96-well plates at a density of 2.5 x 10^4 cells/mL (2.5 × 10^3 cells/well). After 24 hrs, 50 μL of Y strain tissue culture-derived trypomastigotes were used to infect the host cells at a density of 7.5 x 10^5/mL (3.75 x 10^4 parasites/well). The parasites were allowed to infect for a 24 hr period, after which compounds were added in a volume of 50 μL. […] After 72 hrs of compound incubation, the wells were fixed with 4% paraformaldehyde for 15 to 30 mins. The plates were then washed once with deionized water and stained with a solution of DAPI (3 μM) for 1 hour. Plates were imaged in an INCell 2000 (GE Healthcare) high-content analyser by taking 16 pictures per well at 20 X objective amplification. Images were analysed with INCell Developer software (GE Healthcare) using the segmentation of host cell nuclei and parasite kinetoplast DNA. The measurement output used was the average number of parasites per cell calculated by the ratio of host cell nuclei/parasite kinetoplast DNA.\nIn this assay, the compounds are incubated for 72 hours with cells previously infected with wild-type trypomastigotes for 24 hours. The readout was done by comparing the average number of amastigotes per cell that developed by the end of the incubation period. The quality of the assay was statistically evaluated by the calculation of the z-factor [75], that represents the reliability of the assay in distinguishing positive controls confidently from negative controls. Varying from 0 to 1, z-factor values higher than 0.5 are considered acceptable for drug screening. The z-factor obtained was 0.68, validating the use of the assay (S3B Fig)."}, "LiSir2rp1": {"biological_target": "T3, LiSir2rp1 (Leishmania infantum, UniProt A0A6L0XH39)", "T3 construct": "made in house", "T3 sequence (A0A6L0XH39 entry or part of it)": "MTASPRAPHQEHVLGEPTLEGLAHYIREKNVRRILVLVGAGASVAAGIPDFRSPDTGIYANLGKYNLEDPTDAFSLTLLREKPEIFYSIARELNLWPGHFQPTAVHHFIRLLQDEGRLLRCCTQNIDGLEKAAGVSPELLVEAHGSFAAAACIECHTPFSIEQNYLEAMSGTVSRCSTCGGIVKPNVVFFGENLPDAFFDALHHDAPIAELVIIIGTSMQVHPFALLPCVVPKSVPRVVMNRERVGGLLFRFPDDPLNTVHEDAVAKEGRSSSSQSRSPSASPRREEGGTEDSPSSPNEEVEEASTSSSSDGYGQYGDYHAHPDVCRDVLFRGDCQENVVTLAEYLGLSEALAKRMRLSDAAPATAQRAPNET", "assay": "LiSir2rp1 deacetylase inhibition", "format": "biochemical", "description": "as §1, §2"}}}
{"smiles": "NC(=O)c1cccnc1", "note": "[Nicotinamide, nicotinamide, reference compound]", "values": [{"measurement": "inhibition at 200 µM", "setting": "TbSir2rp1", "value": "70 ± 5", "unit": "%"}, {"measurement": "IC50", "setting": "TcSir2rp1; 10 μM Ac-peptide and 200 μM NAD+, read-out: IC50 of TcSir2rp1 inhibition", "value": "456 ± 44", "unit": "µM"}, {"measurement": "inhibition at 200 µM", "setting": "TcSir2rp1; 200 μM", "value": "34 ± 1", "unit": "%"}, {"measurement": "inhibition at 200 µM", "setting": "human SIRT1", "value": "66 ± 10", "unit": "%"}, {"measurement": "IC50", "setting": "[1]", "value": "51.2 ± 3", "unit": "µM"}, {"measurement": "Activity in the amastigote assay", "setting": "T. cruzi amastigotes", "value": "no amastigote anti-parasitic activity was detected"}, {"measurement": "inhibition at 200 µM", "setting": "LiSir2rp1", "value": 82, "unit": "%"}]}
